From patent publication US20240158412A1 (Faxian Therapeutics, LLC, priority 2021, published 2024)

The compounds below were run against USP7 (Homo sapiens, UniProt Q93009) (assay: biochemical).
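Note: fluorescence intensity readout of USP7 enzymatic activity, reaction incubated 90 min at room temperature.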
Experimental: Example A. Biochemical Assay of USP7 Inhibitor Potency (IC50)
Fluorescence intensity assay of USP7 activity in the presence USP7 inhibitors. Recombinant USP7 protein (catalogue number E-519) and the fluorescence substrate ubiquitin-rhodamine 110 (Rh110) (catalogue number U-555) were purchased from Boston Biochem (840 Memorial Drive, Cambridge, MA 02139). The reaction was carried out in buffer 20 mM HEPES, pH 7.3, 150 mM NaCl, 1 mM TCEP, 125 μg/mL BSA at room temperature in a black 384-well Microplate (Greiner, catalog number 781076).
Test compounds were dissolved in DMSO to make 50 mM stock solution. […] In wells of a black 384-well Microplate, 15 μl of 100 pM of USP7 enzyme was added to each well with pre-diluted compounds and incubated at room temperature for 30 minutes, followed by addition of 10 μl of ubiquitin-rhodamine 110 (Rh110) substrate to reach 160 nM final concentration. The reaction mixtures were incubated for additional 90 minutes at room temperature. The fluorescence signal of the digested substrate was measured on an EnVision microplate reader (PerkinElmer,), using excitation at 485 nm and emission at 535 nm. The IC50 values were calculated using XLfit software.

Chain of USP7 (Q93009 whole entry): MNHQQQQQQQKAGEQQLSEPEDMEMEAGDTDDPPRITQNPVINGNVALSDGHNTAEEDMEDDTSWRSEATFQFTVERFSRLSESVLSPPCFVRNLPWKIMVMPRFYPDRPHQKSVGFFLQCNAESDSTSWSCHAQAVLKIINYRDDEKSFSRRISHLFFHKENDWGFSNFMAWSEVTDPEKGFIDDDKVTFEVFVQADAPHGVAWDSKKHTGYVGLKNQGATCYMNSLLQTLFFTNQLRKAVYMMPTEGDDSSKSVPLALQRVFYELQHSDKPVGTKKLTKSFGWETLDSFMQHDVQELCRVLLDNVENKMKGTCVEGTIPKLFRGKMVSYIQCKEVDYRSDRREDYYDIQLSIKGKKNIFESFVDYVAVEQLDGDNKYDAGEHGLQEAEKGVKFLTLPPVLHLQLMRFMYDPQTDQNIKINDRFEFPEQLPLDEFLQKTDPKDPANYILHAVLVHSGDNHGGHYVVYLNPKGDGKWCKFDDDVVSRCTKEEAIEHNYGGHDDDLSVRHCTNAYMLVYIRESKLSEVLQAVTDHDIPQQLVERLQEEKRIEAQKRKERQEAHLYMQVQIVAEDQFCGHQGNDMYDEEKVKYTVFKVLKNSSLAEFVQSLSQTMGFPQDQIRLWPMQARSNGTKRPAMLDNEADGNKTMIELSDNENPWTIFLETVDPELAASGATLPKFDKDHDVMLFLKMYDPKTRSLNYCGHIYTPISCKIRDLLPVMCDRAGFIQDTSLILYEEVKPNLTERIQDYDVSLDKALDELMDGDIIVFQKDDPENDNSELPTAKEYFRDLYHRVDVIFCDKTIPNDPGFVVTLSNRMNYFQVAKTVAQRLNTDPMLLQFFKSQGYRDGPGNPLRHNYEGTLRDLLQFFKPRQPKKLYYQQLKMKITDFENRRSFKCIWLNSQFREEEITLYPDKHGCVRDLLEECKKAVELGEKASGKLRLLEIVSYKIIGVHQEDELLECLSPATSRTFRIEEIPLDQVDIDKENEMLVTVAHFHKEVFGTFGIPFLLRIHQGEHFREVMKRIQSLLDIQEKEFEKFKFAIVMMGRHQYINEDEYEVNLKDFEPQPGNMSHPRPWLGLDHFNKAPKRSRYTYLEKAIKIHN

IC50	SMILES
101 to 1000 nM	CNC(=O)N1CC(N2CCCc3cc(Cl)cc(-c4ccnc5cc(CN6C(=O)CCC6=O)sc45)c32)C1 [Example 7, 3-[6-chloro-8-[2-[(2,5-dioxopyrrolidin-1-yl)methyl]thieno[3,2-b]pyridin-7-yl]-3,4-dihydro-2H-quinolin-1-yl]-N-methyl-azetidine-1-carboxamide]
< 10 nM	N#CC1(Cn2ccc(=O)n(Cc3cc4nccc(-c5cc(Cl)cc6c5N([C@H]5CCNC5)CCC6)c4s3)c2=O)CC1 [Example 70, (S)-1-((3-((7-(6-chloro-1-(pyrrolidin-3-yl)-1,2,3,4-tetrahydroquinolin-8-yl)thieno[3,2-b]pyridin-2-yl)methyl)-2,4-dioxo-3,4-dihydropyrimidin-1(2H)-yl)methyl)cyclopropanecarbonitrile]
< 10 nM	O=c1ccn(CC(F)(F)F)c(=O)n1Cc1cc2nccc(-c3cc(Cl)cc4c3N([C@@H]3CCNC3)CCC4)c2s1 [Example 56, (R)-3-((7-(6-chloro-1-(pyrrolidin-3-yl)-1,2,3,4-tetrahydroquinolin-8-yl)thieno[3,2-b]pyridin-2-yl)methyl)-1-(2,2,2-trifluoroethyl)pyrimidine-2,4(1H,3H)-dione]
< 10 nM	CC1(c2cnn(Cc3cc4nccc(-c5cc(C#N)cc6c5N([C@@H]5CN[C@@H](CO)C5)C[C@H]5C[C@@H]65)c4s3)c(=O)c2)CC1 (single isomer, unassigned) [Example 195a]
10 to 100 nM	COC[C@@]1(C)C[C@H](N2CCCc3cc(Cl)cc(-c4ccnc5cc(CN6C(=O)CCC6=O)sc45)c32)CN1 [Example 200, 1-((7-(6-chloro-1-((3S,5R)-5-(methoxymethyl)-5-methylpyrrolidin-3-yl)-1,2,3,4-tetrahydroquinolin-8-yl)thieno[3,2-b]pyridin-2-yl)methyl)pyrrolidine-2,5-dione]
< 10 nM	O=C1C2CC2C(=O)N1Cc1cc2nccc(-c3cc(Cl)cc4c3N([C@@H]3CNC5(CCC5)C3)CCC4)c2s1 (stereo partly drawn) [Example 145, 3-((7-(6-chloro-1-((S)-5-azaspiro[3.4]octan-7-yl)-1,2,3,4-tetrahydroquinolin-8-yl)thieno[3,2-b]pyridin-2-yl)methyl)-3-azabicyclo[3.1.0]hexane-2,4-dione]
< 10 nM	N#Cc1cc2c(c(-c3ccnc4cc(CN5C(=O)C6CC6C5=O)sc34)c1)N([C@@H]1CN[C@@H](CO)C1)CCO2 (stereo partly drawn) [Example 215, 5-(2-((2,4-dioxo-3-azabicyclo[3.1.0]hexan-3-yl)methyl)thieno[3,2-b]pyridin-7-yl)-4-((3S,5R)-5-(hydroxymethyl)pyrrolidin-3-yl)-3,4-dihydro-2H-benzo[b][1,4]oxazine-7-carbonitrile]
< 10 nM	O=c1n(Cc2cc3nccc(-c4cc(Cl)cc5c4N([C@H]4CCNC4)CCC5)c3s2)nc2n1CCC2 [Example 68, (S)-2-((7-(6-chloro-1-(pyrrolidin-3-yl)-1,2,3,4-tetrahydroquinolin-8-yl)thieno[3,2-b]pyridin-2-yl)methyl)-6,7-dihydro-2H-pyrrolo[2,1-c][1,2,4]triazol-3(5H)-one]
< 10 nM	CC1(C)C[C@H](N2CCCc3cc(C#N)cc(-c4ccnc5cc(CN6C(=O)C7CC7C6=O)sc45)c32)CN1 (stereo partly drawn) [Example 124, 1-((S)-5,5-dimethylpyrrolidin-3-yl)-8-(2-((2,4-dioxo-3-azabicyclo[3.1.0]hexan-3-yl)methyl)thieno[3,2-b]pyridin-7-yl)-1,2,3,4-tetrahydroquinoline-6-carbonitrile]
< 10 nM	O=C1CCC(=O)N1Cc1cc2nccc(-c3cc(C(F)(F)F)cc4c3N([C@H]3CCNC3)CCC4)c2s1 (single isomer, unassigned) [Example 79]
10 to 100 nM	O=C1CCC(=O)N1Cc1cc2nccc(-c3cc(Cl)cc4c3C3(CCC4)CNCCO3)c2s1 (single isomer, unassigned) [Example 229a]
< 10 nM	COCCc1cnn(Cc2cc3nccc(-c4cc(Cl)cc5c4N([C@H]4CCNC4)CCC5)c3s2)c(=O)c1 [Example 66, (S)-2-((7-(6-chloro-1-(pyrrolidin-3-yl)-1,2,3,4-tetrahydroquinolin-8-yl)thieno[3,2-b]pyridin-2-yl)methyl)-5-(2-methoxyethyl)pyridazin-3(2H)-one]
< 10 nM	CN1C[C@@H](N2CCCc3cc(Cl)cc(-c4ccnc5cc(CN6C(=O)CCC6=O)sc45)c32)CC12CCC2 [Example 140, (S)-1-((7-(6-chloro-1-(5-methyl-5-azaspiro[3.4]octan-7-yl)-1,2,3,4-tetrahydroquinolin-8-yl)thieno[3,2-b]pyridin-2-yl)methyl)pyrrolidine-2,5-dione]
101 to 1000 nM	Cc1cc(-c2cc(Cl)cc3c2N([C@H]2CCNC2)CCC3)c2sc(CN3C(=O)CCC3=O)cc2n1 [Example 116, (S)-1-((7-(6-chloro-1-(pyrrolidin-3-yl)-1,2,3,4-tetrahydroquinolin-8-yl)-5-methylthieno[3,2-b]pyridin-2-yl)methyl)pyrrolidine-2,5-dione]
< 10 nM	O=c1ccn(CC(F)(F)F)c(=O)n1Cc1cc2ncnc(-c3cc(Cl)cc4c3N([C@H]3CCNC3)CCC4)c2s1 [Example 91, (S)-3-((4-(6-chloro-1-(pyrrolidin-3-yl)-1,2,3,4-tetrahydroquinolin-8-yl)thieno[3,2-d]pyrimidin-6-yl)methyl)-1-(2,2,2-trifluoroethyl)pyrimidine-2,4(1H,3H)-dione]
10 to 100 nM	CN1CC(N2CCCc3cc(Cl)cc(-c4ccnc5cc(CN6C(=O)CCC6=O)sc45)c32)C1 [Example 2, 1-((7-(6-chloro-1-(1-methylazetidin-3-yl)-1,2,3,4-tetrahydroquinolin-8-yl)thieno[3,2-b]pyridin-2-yl)methyl)pyrrolidine-2,5-dione]
< 10 nM	CC(C)c1cnn(Cc2cc3nccc(-c4cc(C#N)cc5c4N([C@@H]4CNC(C)(C)C4)CCC5)c3s2)c(=O)c1 [Example 129, (S)-1-(5,5-dimethylpyrrolidin-3-yl)-8-(2-((4-isopropyl-6-oxopyridazin-1(6H)-yl)methyl)thieno[3,2-b]pyridin-7-yl)-1,2,3,4-tetrahydroquinoline-6-carbonitrile]
10 to 100 nM	CC1(C)C2C(=O)N(Cc3cc4nccc(-c5cc(Cl)cc6c5N([C@@H]5CNC7(CCC7)C5)CCC6)c4s3)C(=O)C21 (stereo partly drawn) [Example 147, 3-((7-(6-chloro-1-((S)-5-azaspiro[3.4]octan-7-yl)-1,2,3,4-tetrahydroquinolin-8-yl)thieno[3,2-b]pyridin-2-yl)methyl)-6,6-dimethyl-3-azabicyclo[3.1.0]hexane-2,4-dione]
10 to 100 nM	O=C1CCC(=O)N1Cc1cc2nccc(-c3cc(Cl)cc4c3N([C@@H]3CN(C[C@H](O)C(F)(F)F)C5(CCC5)C3)CCC4)c2s1 (single isomer, unassigned) [Example 143a]
< 10 nM	N#Cc1cc(-c2ccnc3cc(CN4C(=O)CCC4=O)sc23)c2c(c1)[C@@H]1C[C@@H]1CN2[C@@H]1CNC2(CCC2)C1 [Example 168, (1aS,7bR)-4-(2-((2,5-dioxopyrrolidin-1-yl)methyl)thieno[3,2-b]pyridin-7-yl)-3-((S)-5-azaspiro[3.4]octan-7-yl)-1a,2,3,7b-tetrahydro-1H-cyclopropa[c]quinoline-6-carbonitrile]
10 to 100 nM	O=C1CCC(=O)N1Cc1cc2nccc(-c3cc(Cl)cc4c3N([C@H]3CNC(CO)(CO)C3)CCC4)c2s1 (single isomer, unassigned) [Example 181b]
< 10 nM	CC1(C)C[C@H](N2CCCc3cc(C#N)cc(-c4ccnc5cc(CN6C(=O)CCCC6=O)sc45)c32)CN1 [Example 130, (S)-1-(5,5-dimethylpyrrolidin-3-yl)-8-(2-((2,6-dioxopiperidin-1-yl)methyl)thieno[3,2-b]pyridin-7-yl)-1,2,3,4-tetrahydroquinoline-6-carbonitrile]
10 to 100 nM	O=c1cccnn1Cc1cc2nccc(-c3cc(Cl)cc4c3N(C3CNC3)CCC4)c2s1 [Example 16, 2-[[7-[1-(azetidin-3-yl)-6-chloro-3,4-dihydro-2H-quinolin-8-yl]thieno[3,2-b]pyridin-2-yl]methyl]pyridazin-3-one]
< 10 nM	O=c1ccn(CCC(F)F)c(=O)n1Cc1cc2nccc(-c3cc(Cl)cc4c3N([C@H]3CCNC3)CCC4)c2s1 [Example 67, (S)-3-((7-(6-chloro-1-(pyrrolidin-3-yl)-1,2,3,4-tetrahydroquinolin-8-yl)thieno[3,2-b]pyridin-2-yl)methyl)-1-(3,3-difluoropropyl)pyrimidine-2,4(1H,3H)-dione]
< 10 nM	CC(C)(O)[C@H]1C[C@H](N2CCCc3cc(Cl)cc(-c4ccnc5cc(CN6C(=O)CCC6=O)sc45)c32)CN1 [Example 189, 1-((7-(6-chloro-1-((3S,5R)-5-(2-hydroxypropan-2-yl)pyrrolidin-3-yl)-1,2,3,4-tetrahydroquinolin-8-yl)thieno[3,2-b]pyridin-2-yl)methyl)pyrrolidine-2,5-dione]
10 to 100 nM	N[C@@H]1CCN(C2CCOc3cc(Cl)cc(-c4ccnc5cc(CN6C(=O)CCC6=O)sc45)c32)C1 (stereo in doubt) [Example 230a, 1-((7-((S)-4-((R)-3-aminopyrrolidin-1-yl)-7-chlorochroman-5-yl)thieno[3,2-b]pyridin-2-yl)methyl)pyrrolidine-2,5-dione]
< 10 nM	CC1(c2cnn(Cc3cc4nccc(-c5cc(C#N)cc6c5N([C@@H]5CN[C@@H](CO)C5)C[C@@H]5C[C@H]65)c4s3)c(=O)c2)CC1 (single isomer, unassigned) [Example 195b]
10 to 100 nM	N#Cc1cc2c(c(-c3ccnc4cc(Cn5c(=O)ccn(CC(F)(F)F)c5=O)sc34)c1)N([C@H]1CCN(C3CCC3)C1)CCC2 [Example 86, (S)-1-(1-cyclobutylpyrrolidin-3-yl)-8-(2-((2,6-dioxo-3-(2,2,2-trifluoroethyl)-2,3-dihydropyrimidin-1(6H)-yl)methyl)thieno[3,2-b]pyridin-7-yl)-1,2,3,4-tetrahydroquinoline-6-carbonitrile]
< 10 nM	CC1(C)C[C@H](N2CCOc3cc(C#N)cc(-c4ccnc5cc(Cn6ncc(C7CC7)cc6=O)sc45)c32)CN1 [Example 135, (S)-5-(2-((4-cyclopropyl-6-oxopyridazin-1(6H)-yl)methyl)thieno[3,2-b]pyridin-7-yl)-4-(5,5-dimethylpyrrolidin-3-yl)-3,4-dihydro-2H-benzo[b][1,4]oxazine-7-carbonitrile]
